Where a name gives a salt, the structure may show the parent alone.
melting point: 141 to 143 °C
Structure (SMILES): c1cncc(COc2cccc(N3CCNCC3)n2)c1 (as salt: HCl) [II, 1-[6-(Pyridin-3-ylmethoxy)-pyridin-2-yl]-piperazine]

— patent US7009051B2, “4-(2-pyridyl) piperazines having 5HT7 receptor agonist activity” (Pfizer Inc, priority 2001, dated 2006)
